Counter-ions that a name gives are not always drawn. Like-named read-outs stand apart in the source and are kept apart here. Marks after values point to notes of the source that are not given here. One block for each compound: values may come before it.
What was measured:
[1] = system: Chang liver cell line (Human liver cells); conditions: reference drug compared with 3a-g
human erythrocytes = test: Hemolytic activity; type: cell-based; conditions: compared within series 3a-g and reference drug
Method: Hemolytic activity of test compounds was estimated by comparing the optical density of a solution containing the test compound with that of blood at 100 % hemolysis. The experiments were carried out as described earlier.
An important step in the determination of the biological activity of new chemical compounds is the assessment of their cytotoxic action in relation to mammalian cells. The ability of the investigated compound to cause the destruction of human erythrocytes illustrates its toxic effect on the internal environment of the body. The hemolysis assay is a simple screening test, the results of which can help in the study of cytotoxicity in more complex models. Such experimental models can be the cell lines obtained from various organs and tissues of a person and allowing to adequately assessing the effect of new potential drugs on cell metabolism.

[2] = system: Bacillus cereus ATCC 10702 NCTC 8035; test: Antimicrobial activity, serial dilution (MIC/MBC), Bc; type: cell-based
Method: (§1) The antimicrobial activity of the test compounds was determined by the serial dilution technique in Muller Hinton Broth 2 and in Sabouradu broth for fungi. The cultures used for testing included Gram-positive bacteria: Staphylococcus aureus ATCC 6538P FDA 209P, Bacillus cereus ATCC 10702 NCTC 8035, Enterococcus faecalis ATCC 29212; Gram-negative bacteria: Escherichia coli ATCC 25922, Pseudomonas aeruginosa ATCC 9027, and fungi: Trichophyton mentagrophytes var. gypseum 1773, and Candida albicans ATCC 10231; methicillin-resistant strains of S. aureus (MRSA) was obtained from hospital patients with chronic tonsillitis in the Republican Clinical Hospital (Kazan, Russia). The bacterial load was 3.0 × 10^5 cfu/ml. The fungi load was 2.0 × 10^3 cfu/ml. The results were recorded every 24 h for 5-7 days. Cultures were incubated at 37 °C. The experiment was repeated three times. […] The minimum inhibitory concentration (MIC) was defined as the minimum concentration of a compound that inhibits the growth of the corresponding test microorganism. The growth of bacteria, as well as the absence of the growth due to the bacteriostatic action of compounds, were recorded.
(§2) Synthesized compounds were further evaluated for antimicrobial activity against test microorganisms: Staphylococcus aureus ATCC 209p (Sa), Bacillus cereus ATCC 8035 (Bc), Escherichia coli CDC F-50 (Ec), Enterococcus faecalis (Ef), Pseudomonas aeruginosa ATCC 9027, Aspergillus niger BKMF-1119, Trichophyton mentagrophytes var. gypseum 1773, and Candida albicans 855-653 including methicillin-resistant strains of S. aureus (MRSA 1 and MRSA 2). The minimum inhibitory (MIC) and minimum bactericidal (MBC) concentrations of ammonium salts were determined against these pathogens (Table 1). Due to the lack of activity of compounds 3a-g against Gram-negative bacterial strains and some fungi, the corresponding data are not shown.

[3] = system: methicillin-resistant strains of S. aureus (MRSA-1); test: Antimicrobial activity, serial dilution (MIC/MBC), MRSA-1; type: cell-based; conditions: Staphylococcus aureus
Method: as §1, §2

[4] = system: activated partial thromboplastin time (intrinsic coagulation pathway); test: Anticoagulant activity, clotting test APTT; design: species or system human; conditions: concentration 5×10^–4 g/mL; median (25-75 percentiles)
Method: (§3) The in vitro experiments were performed using the blood of healthy male donors aged 18-24 years (total 54 donors). The study was approved by the Ethics Committee of Federal State Budgetary Educational Institution of Higher Education at the Bashkir State Medical University of the Ministry of Health of Russian Federation (No.2 dated 17.10.2012). Informed consent was obtained from all participants before blood sampling. The blood was collected from the cubital vein using the system of vacuum blood collection BD Vacutainer® (Becton, Dickinson and Company, USA). A 3.8 % sodium citrate solution in a 9:1 ratio was used as a venous blood stabiliser. The study of the effect on platelet aggregation was performed using the Born method using the aggregometer «AT-02» (SPC Medtech, Russia). The assessment of antiplatelet activity of the studied compounds and reference preparations was started with the final concentration of 2×10^–3 mol/L. Adenosine diphosphate (ADP; 20 μg/mL) and collagen (5 mg/mL) manufactured by Tehnologia-Standart Company, Russia, were used as inducers of aggregation. The study on the anticoagulant activity was performed by standard recognised clotting tests using the optical two-channel automatic analyser of blood coagulation Solar CGL 2110 (CJSC SOLAR, Belarus). The following parameters were studied: activated partial thromboplastin time (APTT), prothrombin time (PT) and fibrinogen concentrations according to the Clauss method. The determination of anticoagulant activity of the studied compounds and reference preparation was performed in a concentration of 5×10^–4 g/mL using the reagents manufactured by Tehnologia-Standart Company (Barnaul, Russia). The results of the study were processed using the statistical package Statistica 10.0 (StatSoft Inc, USA). The Shapiro–Wilk’s test was used to check the normality of actual data distribution. The form of distribution of the data obtained differed from the normal one; therefore, non-parametric methods were used for further analysis. The data were presented as medians and 25 and 75 percentiles. Analysis of variance was conducted using Kruskal–Wallis test. A p value of 0.05 was considered statistically significant.

[5] = system: Staphylococcus aureus ATCC 6538P FDA 209P; test: Antimicrobial activity, serial dilution (MIC/MBC), Sa; type: cell-based; conditions: Staphylococcus aureus
Method: as §1, §2

[6] = system: Enterococcus faecalis ATCC 29212; test: Antimicrobial activity, serial dilution (MIC/MBC), Ef; type: cell-based; conditions: ATCC29212
Method: as §1, §2

[7] = system: Candida albicans ATCC 10231; test: Antimicrobial activity, serial dilution (MIC/MBC), Ca; type: cell-based; conditions: ATCC10231
Method: as §1, §2

[8] = system: methicillin-resistant strains of S. aureus (MRSA-2); test: Antimicrobial activity, serial dilution (MIC/MBC), MRSA-2; type: cell-based; conditions: Staphylococcus aureus
Method: as §1, §2

[9] = system: platelets (collagen-induced aggregation); test: Platelet aggregation (Born method), collagen-induced; type: cell-based; conditions: Homo sapiens, collagen 5 mg/mL, final concentration 2×10^–3 mol/L, median (25-75 percentiles), read-out: Platelets aggregation, % of control, Collagen
Method: as §3

[10] = system: platelets (ADP-induced aggregation); test: Platelet aggregation (Born method), ADP-induced; type: cell-based; conditions: Homo sapiens, ADP 20 μg/mL, final concentration 2×10^–3 mol/L, median (25-75 percentiles), read-out: Platelets aggregation, % of control, ADP
Method: as §3

Compound: COc1cccc2c1C(=O)c1c(O)c3c(c(O)c1C2=O)C[C@@](O)(C(=O)CO)C[C@@H]3O[C@H]1C[C@H](N)[C@H](O)[C@H](C)O1 [doxorubicin]
toxicity to liver cells (in words) [1]: much more toxic

Compound: gramicidin S [reference compound]
toxicity to red blood cells (in words) (human erythrocytes): much more toxic

MIC [2]: 25.4 ± 1.9 µM
MIC ([2]; Bacillus cereus, read-out: MIC): ~25 µM
MIC [3]: 50.8 ± 4.1 µM
MIC [5]: 3.2 ± 0.2 µM
MIC [6]: > 500 µM
MIC [7]: > 500 µM
MIC [8]: 25.4 ± 2.3 µM
Compound: CC[N+](CC)(CC)CC(=O)N/N=C1\C(=O)N(Cc2cc(C(C)(C)C)c(O)c(C(C)(C)C)c2)c2c(C)cccc21 [Compound 3b, 2-(2-(1-(3,5-Di-tert-butyl-4-hydroxybenzyl)-7-methyl-2-oxoindolin-3-ylidene)hydrazinyl)-N,N,N-triethyl-2-oxoethanammonium bromide]
MBC ([2]; Bacillus cereus): 203 µM
MBC [3]: 203 µM
APTT, % of control [4]: +7.3 (6.5-9.6) ^*, ^† % of control
MBC ([5]; read-out: MBC (converted)): 25.4 µM
toxicity to red blood cells (in words) (human erythrocytes): least toxic
MBC [6]: > 500 µM
MBC [7]: > 500 µM
MBC [8]: 50.8 µM
inhibition at 2000 µM [9]: 10.3%
inhibition at 2000 µM [10]: 9.7%

melting point: 154 °C
Compound: CC[N+](CC)(CC)CC(=O)N/N=C1\C(=O)N(Cc2cc(C(C)(C)C)c(O)c(C(C)(C)C)c2)c2c(C)cccc21 (as salt: bromide) [Compound 3b, 2-(2-(1-(3,5-Di-tert-butyl-4-hydroxybenzyl)-7-methyl-2-oxoindolin-3-ylidene)hydrazinyl)-N,N,N-triethyl-2-oxoethanammonium bromide]

melting point: 177 °C
Compound: CC[N+](CC)(CC)CC(=O)N/N=C1\C(=O)N(Cc2cc(C(C)(C)C)c(O)c(C(C)(C)C)c2)c2c(Br)cc(Cl)cc21 (as salt: bromide) [Compound 3g, 2-(2-(1-(3,5-Di-tert-butyl-4-hydroxybenzyl)-5-chloro-7-bromo-2-oxoindolin-3-ylidene)hydrazinyl)-N,N,N-triethyl-2-oxoethanammonium bromide]

Reference: paper PMC8957246, “Synthesis and diverse biological activity profile of triethylammonium isatin-3-hydrazones” (ADMET & DMPK, 2022)
